Source: US8017602B2, “N-(2-(2-(5-hydroxy-3-oxo-3,4-dihydro-2H-benzo[b][1,4]oxazin-8-yl)ethylamino)ethyl)-3-(phenethoxy)propanamide derivatives, processes for their preparation, pharmaceutical compositions containing them and their use in therapy” (AstraZeneca AB, priority 2008, dated 2011)
Structures can show the parent of a compound that is named as a salt.

How the values were obtained:
Adrenergic β2 = target: T1, Adrenergic β2 (Homo sapiens, UniProt P07550); assay: Adrenergic β2 mediated cAMP production in H292 cells (AlphaScreen cAMP detection); format: cell-based; conditions: for β2 Int Act: Intrinsic Activity, fraction relative to the maximum activity determined for formoterol; for EC50: cAMP production, 60 min at room temperature, 300 μM rolipram, read-out: β2 pEC50 (converted)
T1 construct: Adherent H292 cells were removed from tissue culture flasks; endogenous in cells; host or cells: H292 cells
Description: H292 cells were grown in 225 cm2 flasks incubator at 37° C., 5% CO2 in RPMI medium containing, 10% (v/v) FBS (foetal bovine serum) and 2 mM L-glutamine.
Adherent H292 cells were removed from tissue culture flasks by treatment with Accutase™ cell detachment solution for 15 min. Flasks were incubated for 15 min in a humidified incubator at 37° C., 5% CO2. Detached cells were re-suspended in RPMI media (containing 10% (v/v) FBS and 2 mM L-glutamine) at […]. 10000 cells in 100 μl were added to each well of a tissue-culture-treated 96-well plate and the cells incubated overnight in a humidified incubator at 37° C., 5% CO2. The culture media was removed and cells were washed twice with 100 μl assay buffer and replaced with 50 μL assay buffer (HBSS solution containing 10 mM HEPES pH7.4 and 5 mM glucose). Cells were rested at room temperature for 20 min after which time 25 μl of rolipram (1.2 mM made up in assay buffer containing 2.4% (v/v) dimethylsulphoxide) was added. Cells were incubated with rolipram for 10 min after which time test compounds were added and the cells were incubated for 60 min at room temperature. The final rolipram concentration in the assay was 300 μM and final vehicle concentration was 1.6% (v/v) dimethylsulphoxide. The reaction was stopped by removing supernatants, washing once with 100 μL assay buffer and replacing with 50 μL lysis buffer. The cell monolayer was frozen at −80° C. for 30 min (or overnight).
AlphaScreen™ cAMP Detection
The concentration of cAMP (cyclic adenosine monophosphate) in the cell lysate was determined using AlphaScreen™ methodology. The frozen cell plate was thawed for 20 min on a plate shaker then 10 μl of the cell lysate was transferred to a 96-well white plate. 40 μL of mixed AlphaScreen™ detection beads pre-incubated with biotinylated cAMP, was added to each well and the plate incubated at room temperature for 10 h in the dark. The AlphaScreen™ signal was measured using an EnVision spectrophotometer (Perkin-Elmer Inc.) with the recommended manufacturer's settings. cAMP concentrations were determined by reference to a calibration curve determined in the same experiment using standard cAMP concentrations. Concentration response curves for agonists were constructed and data was fitted to a four parameter logistic equation to determine both the pEC50 and Intrinsic Activity. Intrinsic Activity was expressed as a fraction relative to the maximum activity determined for formoterol in each experiment.

[1] = target: T2, recombinant human α1D receptor (Homo sapiens, UniProt P25100); assay: Adrenergic α1D selectivity binding assay ([3H]-prazosin); conditions: inhibition of [3H]-prazosin binding, HEK293 membranes, read-out: α1 bind pIC50 (converted)
T2 construct: expressed in transfected cells; host or cells: HEK293
T2 sequence (P25100 1-572): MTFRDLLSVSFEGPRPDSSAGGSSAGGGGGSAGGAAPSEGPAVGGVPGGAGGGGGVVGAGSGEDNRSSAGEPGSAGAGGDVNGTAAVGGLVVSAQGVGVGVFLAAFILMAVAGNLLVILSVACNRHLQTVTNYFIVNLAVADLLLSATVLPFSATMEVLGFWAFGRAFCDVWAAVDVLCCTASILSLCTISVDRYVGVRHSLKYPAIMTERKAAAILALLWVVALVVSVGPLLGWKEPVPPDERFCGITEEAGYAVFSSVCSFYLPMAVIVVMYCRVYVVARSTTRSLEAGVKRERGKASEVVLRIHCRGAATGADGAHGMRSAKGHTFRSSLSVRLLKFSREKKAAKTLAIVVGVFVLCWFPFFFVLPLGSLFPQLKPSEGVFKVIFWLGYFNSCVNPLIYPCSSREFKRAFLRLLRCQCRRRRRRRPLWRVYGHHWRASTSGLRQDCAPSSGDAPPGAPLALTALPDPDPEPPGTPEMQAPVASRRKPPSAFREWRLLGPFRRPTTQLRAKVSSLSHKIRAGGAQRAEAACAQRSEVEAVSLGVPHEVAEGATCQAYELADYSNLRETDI
Description: Membranes were prepared from human embryonic kidney 293 (HEK293) cells expressing recombinant human α1D receptor. These were diluted in Assay Buffer (50 mM HEPES, 1 mM EDTA, pH 7.4) to provide a final concentration of membranes that gave a clear window between maximum and minimum specific binding.
Assays were performed in U-bottomed 96-well polypropylene plates. 10 μl [^3H]-prazosin (0.3 nM final concentration) and 10 μl of test compound (10× final concentration) were added to each test well. For each assay plate 8 replicates were obtained for [^3H]-prazosin binding in the presence of 10 μl vehicle (10% (v/v) DMSO in Assay Buffer; defining maximum binding) or 10 μL BMY7378 (10 μM final concentration; defining non-specific binding (NSB)). Membranes were then added to achieve a final volume of 100 μL. The plates were incubated for 2 h at room temperature and then filtered onto PEI coated GF/B filter plates, pre-soaked for 1 h in Assay Buffer, using a 96-well plate Tomtec cell harvester. Five washes with 250 μl wash buffer (50 mM HEPES, 1 mM EDTA, pH 7.4) were performed at 4° C. to remove unbound radioactivity. The plates were dried then sealed from underneath using Packard plate sealers and MicroScint-O (50 μl) was added to each well. The plates were sealed (TopSeal A) and filter-bound radioactivity was measured with a scintillation counter (TopCount, Packard BioScience) using a 3-minute counting protocol.
Total specific binding (B0) was determined by subtracting the mean NSB from the mean maximum binding. NSB values were also subtracted from values from all other wells. […] Data was fitted to a four parameter logistic equation to determine the compound potency, which was expressed as pIC50 (negative log molar concentration inducing 50% inhibition of [^3H]-prazosin binding).

T1 sequence (P07550 whole entry): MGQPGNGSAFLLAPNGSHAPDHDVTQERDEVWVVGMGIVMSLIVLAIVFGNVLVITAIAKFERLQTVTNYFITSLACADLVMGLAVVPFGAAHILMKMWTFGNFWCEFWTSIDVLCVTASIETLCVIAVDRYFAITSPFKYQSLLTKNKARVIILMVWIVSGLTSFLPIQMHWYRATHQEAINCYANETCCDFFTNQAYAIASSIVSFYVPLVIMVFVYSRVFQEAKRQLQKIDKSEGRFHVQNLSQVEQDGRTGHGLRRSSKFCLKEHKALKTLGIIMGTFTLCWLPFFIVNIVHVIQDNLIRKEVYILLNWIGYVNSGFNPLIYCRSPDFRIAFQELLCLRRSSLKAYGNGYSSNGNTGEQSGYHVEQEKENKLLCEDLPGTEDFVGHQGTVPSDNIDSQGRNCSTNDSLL

| SMILES | β2 Int Act (Adrenergic β2) | EC50 (Adrenergic β2) | IC50 [1] |
| --- | --- | --- | --- |
| Cc1nc(-c2cccc(CCOCCC(=O)N(CCNCCc3ccc(O)c4c3OCC(=O)N4)C3CCCCC3)c2)[nH]c1C [Example 32, N-Cyclohexyl-3-(3-(4,5-dimethyl-1H-imidazol-2-yl)phenethoxy)-N-(2-(2-(5-hydroxy-3-oxo-3,4-dihydro-2H-benzo[b][1,4]oxazin-8-yl)ethylamino)ethyl)propanamide] | 1.00 | 7.94 nM | 631 nM |
| Cn1nccc1-c1cccc(CCOCCC(=O)N(CCNCCc2ccc(O)c3c2OCC(=O)N3)C2CCCCC2)c1 [Example 03, N-Cyclohexyl-N-(2-(2-(5-hydroxy-3-oxo-3,4-dihydro-2H-benzo[b][1,4]oxazin-8-yl)ethylamino)ethyl)-3-(3-(1-methyl-1H-pyrazol-5-yl)phenethoxy)propanamide Trifluoroacetic Acid Salt] | 0.81 | 10 nM | 2000 nM |
| CCn1ccnc1-c1cccc(CCOCCC(=O)N(CCNCCc2ccc(O)c3c2OCC(=O)N3)C2CCCCC2)c1 [Example 29, N-Cyclohexyl-3-(3-(1-ethyl-1H-imidazol-2-yl)phenethoxy)-N-(2-(2-(5-hydroxy-3-oxo-3,4-dihydro-2H-benzo[b][1,4]oxazin-8-yl)ethylamino)ethyl)propanamide Trifluoroacetic Acid Salt] | 0.90 | 50.1 nM | 1580 nM |
| CCn1cc(-c2cccc(CCOCCC(=O)N(CCNCCc3ccc(O)c4c3OCC(=O)N4)[C@H](C)C(C)(C)C)c2)cn1 [Example 25, (R)—N-(3,3-Dimethylbutan-2-yl)-3-(3-(1-ethyl-1H-pyrazol-4-yl)phenethoxy)-N-(2-(2-(5-hydroxy-3-oxo-3,4-dihydro-2H-benzo[b][1,4]oxazin-8-yl)ethylamino)ethyl)propanamide Trifluoroacetic Acid Salt] | 0.90 | 12.6 nM | 316 nM |
| Cn1cc(-c2cccc(CCOCCC(=O)N(CCNCCc3ccc(O)c4c3OCC(=O)N4)C3CCCCCC3)c2)cn1 [Example 31, N-Cycloheptyl-N-(2-(2-(5-hydroxy-3-oxo-3,4-dihydro-2H-benzo[b][1,4]oxazin-8-yl)ethylamino)ethyl)-3-(3-(1-methyl-1H-pyrazol-4-yl)phenethoxy)propanamide Trifluoroacetic Acid Salt] | 0.93 | 3.16 nM | 398 nM |
| O=C1COc2c(CCNCCN(C(=O)CCOCCc3cccc(-c4cnn(CC5CC5)c4)c3)C3CCCC3)ccc(O)c2N1 [Example 19, N-Cyclopentyl-3-(3-(1-(cyclopropylmethyl)-1H-pyrazol-4-yl)phenethoxy)-N-(2-(2-(5-hydroxy-3-oxo-3,4-dihydro-2H -benzo[b][1,4]oxazin-8-yl)ethylamino)ethyl)propanamide Trifluoroacetic Acid Salt] | 0.95 | 6.31 nM | 1000 nM |
| Cc1nc(-c2cccc(CCOCCC(=O)N(CCNCCc3ccc(O)c4c3OCC(=O)N4)C3CCCCC3)c2)no1 [Example 27, N-Cyclohexyl-N-(2-(2-(5-hydroxy-3-oxo-3,4-dihydro-2H-benzo[b][1,4]oxazin-8-yl)ethylamino)ethyl)-3-(3-(5-methyl-1,2,4-oxadiazol-3-yl)phenethoxy)propanamide Trifluoroacetic Acid Salt] | 0.91 | 15.8 nM | 1000 nM |
| Cn1cc(-c2cc(CCOCCC(=O)N(CCNCCc3ccc(O)c4c3OCC(=O)N4)C3CCCCC3)ccc2F)cn1 [Example 13, N-Cyclohexyl-3-(4-fluoro-3-(1-methyl-1H-pyrazol-4-yl)phenethoxy)-N-(2-(2-(5-hydroxy-3-oxo-3,4-dihydro-2H-benzo[b][1,4]oxazin-8-yl)ethylamino)ethyl)propanamide Trifluoroacetic Acid Salt] | 0.85 | 10 nM | 631 nM |
| O=C1COc2c(CCNCCN(C(=O)CCOCCc3cccc(-c4c[nH]nn4)c3)C3CCCCC3)ccc(O)c2N1 [Example 14, 3-(3-(1H-1,2,3-Triazol-4-yl)phenethoxy)-N-cyclohexyl-N-(2-(2-(5-hydroxy-3-oxo-3,4-dihydro-2H-benzo[b][1,4]oxazin-8-yl)ethylamino)ethyl)propanamide Trifluoroacetic Acid Salt] | 0.95 | 7.94 nM | 1000 nM |
| CCCC[C@@H](C)N(CCNCCc1ccc(O)c2c1OCC(=O)N2)C(=O)CCOCCc1cccc(-c2cnn(C)c2)c1 [Example 30, (R)—N-(Hexan-2-yl)-N-(2-(2-(5-hydroxy-3-oxo-3,4-dihydro-2H-benzo[b][1,4]oxazin-8-yl)ethylamino)ethyl)-3-(3-(1-methyl-1H-pyrazol-4-yl)phenethoxy)propanamide Trifluoroacetic Acid Salt] | 0.93 | 12.6 nM | 1000 nM |
| Cn1nnnc1-c1cccc(CCOCCC(=O)N(CCNCCc2ccc(O)c3c2OCC(=O)N3)C2CCCCC2)c1 [Example 08, N-Cyclohexyl-N-(2-(2-(5-hydroxy-3-oxo-3,4-dihydro-2H-benzo[b][1,4]oxazin-8-yl)ethylamino)ethyl)-3-(3-(1-methyl-1H-tetrazol-5-yl)phenethoxy)propanamide Trifluoroacetic Acid Salt] | 0.92 | 15.8 nM | 3980 nM |
| Cn1cc(-c2cccc(CCOCCC(=O)N(CCNCCc3ccc(O)c4c3OCC(=O)N4)C3CCCCC3)c2)nn1 [Example 05, N-Cyclohexyl-N-(2-(2-(5-hydroxy-3-oxo-3,4-dihydro-2H-benzo[b][1,4]oxazin-8-yl)ethylamino)ethyl)-3-(3-(1-methyl-1H-1,2,3-triazol-4-yl)phenethoxy)propanamide Trifluoroacetic Acid Salt] | 0.87 | 7.94 nM | 2000 nM |
| CCn1cc(-c2cccc(CCOCCC(=O)N(CCNCCc3ccc(O)c4c3OCC(=O)N4)C3CCCCC3)c2)nn1 [Example 04, N-Cyclohexyl-3-(3-(1-ethyl-1H-1,2,3-triazol-4-yl)phenethoxy)-N-(2-(2-(5-hydroxy-3-oxo-3,4-dihydro-2H-benzo[b][1,4]oxazin-8-yl)ethylamino)ethyl)propanamide Trifluoroacetic Acid Salt] | 0.96 | 12.6 nM | 2000 nM |
